According to patent US20130065260A1, “Compositions, Methods and Uses for Simultaneous Assay of Thrombin and Plasmin Generation” (The Regents of the University of Colorado, a body corporate, priority 2009, published 2013):

B1: TF: recombinant human tissue factor, lipidated and non-lipidated, initiates coagulation (protein, UniProt P13726 33-295, looked up)
Tissue factor: SGTTNTVAAYNLTWKSTNFKTILEWEPKPVNQVYTVQISTKSGDWKSKCFYTTDTECDLTDEIVKDVKQTYLARVFSYPAGNVESTGSAGEPLYENSPEFTPYLETNLGQPTIQSFEQVGTKVNVTVEDERTLVRRNNTFLSLRDVFGKDLIYTLYYWKSSSSGKKTAKTNTNEFLIDVDKGENYCFSVQAVIPSRTVNRKSTDSPVECMGQEKGEFREIFYIIGAVVFVVIILVIILAISLHKCRKAGVGQSWKENSPLNVS
modifications: lipidated and non-lipidated
notes: recombinant human tissue factor, lipidated and non-lipidated, initiates coagulation

Assays:
[1] = system: thrombin; experiment: Simultaneous thrombin and plasmin generation (STP) assay, thrombin generation; format: biochemical, human; details: data not shown; for effect on thrombin generation at heparin 1 U/mL: heparin concentration 1 U/mL
Protocol: Reactant solution is prepared as described previously for the CloFAL assay developed in our laboratory. Briefly, lipidated recombinant human tissue factor (TF) (American Diagnostica Inc, Stamford, Conn.), non-lipidated recombinant human TF (American Diagnostica Inc), and recombinant two-chain tissue plasminogen activator (tPA) (American Diagnostica Inc) are added to a stock solution of Tris-buffered saline (TBS; 66 mM Tris, 130 mM NaCl, pH=7.0) containing 34 mM CaCl2, to a concentration of 10 pM of TF (made from 8.7 pM non-lipidated TF and 1.3 pM lipidated TF) and 900 ng/mL of tPA. Final concentrations are 5 pM TF and 450 ng/mL tPA after addition of reactant solution to plasma samples, as described below. The assay blank consists of TBS alone. The reactant solution is freshly prepared from stored stock solutions of TBS, aliquoted TF, and aliquoted tPA just prior to assay. Final concentrations of TF and tPA ranging from 0-10 pM and 0-900 ng/mL, respectively, were investigated during assay development, with ultimate concentrations of these reagents (as well as ratio of lipidated to non-lipidated TF) selected based upon empiric experiments designed to optimize precision and analytical sensitivity to pathologically and physiologically altered states of coagulation and fibrinolysis, as previously performed with the CloFAL assay
Two fluorometric substrates were used for the detection of the key enzymes, thrombin and plasmin. […]
For each patient sample to be analyzed, 90 μL of reactant solution was added simultaneously to each well in a flat-bottom, black, 96 well Costar assay plate (Fisher Scientific, Santa Clara, Calif.) using a multi-tip automated pipette. […] The plate was then placed into the fluorescent spectrophotometer (Multi-Mode Microplate Reader Synergy 2, Bio-Tek Instruments, Winooski, Vt.) where it was pre-warmed at 37 ° C. for three minutes. […] The plate was then drawn back into the fluorescent spectrophotometer where the sample is initially mixed for five seconds followed by fluorescent intensity measurements taken from each well every 45 seconds for four hours at a fluorescent emission of […] (as determined by the chosen fluorescent substrates). […] The kinetic fluorometric intensity data were exported to Microsoft Excel for additional data analyses in order to generate the aforementioned calculated parameters from the raw data. […]

[2] = system: plasmin; experiment: Simultaneous thrombin and plasmin generation (STP) assay, plasmin generation; format: biochemical, human; details: data not shown; for effect on plasmin generation at heparin 1 U/mL: heparin concentration 1 U/mL
[3] = normal plasma, corn trypsin inhibitor added to citrate whole blood collection tubes, relative to its absence

| Molecule | effect on thrombin generation at heparin 1 U/mL [1] | effect on plasmin generation at heparin 1 U/mL [2] | STP findings (thrombin generation) with contact pathway inhibition [1, 3] | STP findings (plasmin generation) with contact pathway inhibition [2, 3] | thrombin generation capacity, response to exogenous TF ([1]; in vitro) |
| --- | --- | --- | --- | --- | --- |
| dalteparin | ablation | ablation | – | – | – |
| corn trypsin inhibitor | – | – | did not alter STP findings | did not alter STP findings | – |
| porcine unfractionated heparin sodium | ablation | ablation | – | – | – |
| B1 | – | – | – | – | concentration-responsiveness |
